Results from patent US5648379A (priority 1990, dated 1997).
In brackets after ≈: the same amount, converted by molar mass. Entries after “also recorded” stand apart in the source; their conditions may differ. Where two headings read alike, the source gives them in different places.

Legend:
[1] = tested on: Neuraminidase from Arthrobacter sialophilus; details: in vitro; Kumar et al. 1981, 1982; cited from earlier work
neuraminidase = details: cited from earlier work; for inhibition of neuraminidase: type of neuraminidase not identified
[2] = biological target: N2 influenza virus neuraminidase (Influenza A virus, UniProt P06820); assay: biochemical
[3] = tested on: Neuraminidase in at least some strains of influenza or parainfluenza viruses; details: in vitro; Zakstel'skaya et al. 1972; cited from earlier work
[4] = tested on: H2N2 influenza A virus (A/Sing/1/57); assay type: in vivo, mice; details: for % AUC (lung virus titre, compared to untreated mice): days 1-3; for titre of virus in lung tissue: intranasal, before and during challenge, 1 to 3 days after infection
N9 neuraminidase = N9 neuraminidase (Influenza A virus, UniProt P03472); assay: biochemical; details: read-out: Ki, inhibition of N9 neuraminidase
[5] = tested on: influenza A/Singapore/1/57 (H2N2); assay: microbe, parasite or virus in culture; assay type: cell-based; details: H2N2, MDCK, 72 h, read-out: IC50 Plaque Reduction, Influenza A
[6] = tested on: Influenza B/Victoria/102/85; assay: microbe, parasite or virus in culture; assay type: cell-based; details: MDCK, 72 h, read-out: IC50 Plaque Reduction, Influenza B
influenza virus = assay: microbe, parasite or virus in culture; assay type: cell-based; details: unidentified influenza virus, read-out: IC50 plaque reduction
[7] = literature; cited from earlier work
[8] = N2, 37° C., read-out: Ki, inhibition of N2 neuraminidase
[9] = Experiment 1, 25 mg/kg intranasal
[10] = Experiment 2, 12.5 mg/kg intranasal
[11] = Experiment 3, 12.5 mg/kg intranasal

N9 neuraminidase, sequence (P03472 whole entry, looked up): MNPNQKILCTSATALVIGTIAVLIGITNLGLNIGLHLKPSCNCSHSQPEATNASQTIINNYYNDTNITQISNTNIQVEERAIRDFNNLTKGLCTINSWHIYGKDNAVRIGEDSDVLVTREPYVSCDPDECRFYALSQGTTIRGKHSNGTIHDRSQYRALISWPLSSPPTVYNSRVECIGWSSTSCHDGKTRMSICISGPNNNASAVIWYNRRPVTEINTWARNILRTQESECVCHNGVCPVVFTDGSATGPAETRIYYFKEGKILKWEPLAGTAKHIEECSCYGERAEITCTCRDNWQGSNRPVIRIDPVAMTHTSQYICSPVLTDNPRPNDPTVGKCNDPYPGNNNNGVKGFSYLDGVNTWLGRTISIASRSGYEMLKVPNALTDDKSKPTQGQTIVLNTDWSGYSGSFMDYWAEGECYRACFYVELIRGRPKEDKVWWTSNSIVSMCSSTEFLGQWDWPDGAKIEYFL
N2 influenza virus neuraminidase, sequence (P06820 whole entry, looked up): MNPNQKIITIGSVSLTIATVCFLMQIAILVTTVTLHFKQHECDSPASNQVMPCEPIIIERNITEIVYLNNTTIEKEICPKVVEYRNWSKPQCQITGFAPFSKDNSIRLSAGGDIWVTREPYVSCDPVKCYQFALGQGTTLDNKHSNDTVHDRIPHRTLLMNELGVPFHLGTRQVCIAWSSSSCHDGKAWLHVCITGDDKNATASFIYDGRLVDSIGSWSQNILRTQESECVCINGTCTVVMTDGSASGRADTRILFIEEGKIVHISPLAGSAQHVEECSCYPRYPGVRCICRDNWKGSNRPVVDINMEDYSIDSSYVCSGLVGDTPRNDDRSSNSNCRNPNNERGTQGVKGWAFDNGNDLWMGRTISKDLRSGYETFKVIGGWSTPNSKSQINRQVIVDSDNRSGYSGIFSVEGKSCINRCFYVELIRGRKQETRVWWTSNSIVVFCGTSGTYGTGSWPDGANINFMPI

In the case of `CC(=O)N[C@H]1[C@H]([C@H](O)[C@H](O)CO)OC(C(=O)O)=C[C@H]1O` [2,3-dehydro-4-epi-N-acetyl-neuraminic acid], the “inhibition of Arthrobacter sialophilus neuraminidase” value [1] is listed as “inhibited in vitro”.
For `N[C@H]1[C@H]([C@H](O)[C@H](O)CO)SC(C(=O)O)=C[C@@H]1O` [2-deoxy-2,3-didehydro-6-thioneuraminic acid], the inhibition of neuraminidase (neuraminidase) is given as “reported to inhibit neuraminidase”.
`CC(=O)N[C@H]1[C@H]([C@H](O)[C@H](O)CO)O[C@@H](C(=O)O)C[C@@H]1O` [2-deoxy-N acetyl-α-D-neuraminic acid, 2-deoxy-N-acetyl-α-D-neuraminic acid, reference compound] gave a Ki [2, 8] of 300 µM.
In the case of `[N-]=[N+]=NC1(C(=O)O)C[C@H](O)[C@@H](N)[C@H]([C@H](O)[C@H](O)CO)S1` (stereo partly drawn) [2-α-azido-6-thio-neuraminic acid], the inhibition of neuraminidase (neuraminidase) is given as “reported to inhibit neuraminidase”.
In the case of `O=C1CNC(=O)[C@H]([C@H](O)[C@H](O)CO)O1` [3-aza-2,3,4-trideoxy-4-oxo-D-arabinoctonic acid δ-lactone], the “inhibition of influenza or parainfluenza virus neuraminidase” value [3] is listed as “inhibited in vitro”.
In the case of `CC(=O)N[C@@H]1C(=O)C=C(C(=O)O)O[C@H]1[C@H](O)[C@H](O)CO` [5-acetamido-2,6-anhydro-2,3,5-trideoxy-D-manno-non-2-en-4-ulosonate], the “inhibition of Arthrobacter sialophilus neuraminidase” value [1] is listed as “inhibited in vitro”.
With `NC12CC3CC(CC(C3)C1)C2` [Amantadine] the “% AUC (lung virus titre, compared to untreated mice)” value (shortened to “% AUC”) [4, 9] was 0.08%, the “% AUC” value [4, 10] was 0.03% and the “% AUC” value ([4]; Experiment 2, 25 mg/kg) was 0.2%. The “% AUC” value [4, 11] was 8.8%.
For `CC(=O)N[C@H]1[C@H]([C@H](O)[C@H](O)CO)OC(C(=O)O)=C[C@@H]1N=[N+]=[N-]` [Compound 4, Sodium 5-Acetamido-4-azido-2,3,4,5-tetradeoxy-D-glycero-D-galacto-non-2-enopyranosonate], the Ki [2, 8] was 2 µM.
For `CC(=O)N[C@H]1[C@H]([C@H](O)[C@H](O)CO)OC(C(=O)O)=C[C@@H]1N` [Compound 6, Sodium 5-Acetamido-4-amino-2,3,4,5-tetradeoxy-D-glycero-D-galacto-non-2-enopyranosonate], the “% AUC” value [4, 9] was 0.06%, the “titre of virus in lung tissue” value [4] was “reduced the titre of virus in lung tissue” and the Ki (N9 neuraminidase) was 0.19 µM. For the same compound, the Ki [2, 8] was 0.06 µM, the Ki ([2]; read-out: Ki, inhibition of N2 virus neuraminidase) was 0.01 µM and the IC50 [5] was 1.6 µM. The IC50 [6] was 1.6 µM.
Compound `C=CCN(CC=C)[C@H]1C=C(C(=O)O)O[C@@H]([C@H](O)[C@H](O)CO)[C@@H]1NC(C)=O` [Compound 9, Sodium 5-Acetamido-4-N,N-diallylamino-2,3,4,5-tetradeoxy-D-glycero-D-galacto-non-2-enopyranosonate] has a Ki [2, 8] of 4 µM.
Work on `C=CCN[C@H]1C=C(C(=O)O)O[C@@H]([C@H](O)[C@H](O)CO)[C@@H]1NC(C)=O` [Compound 11, Sodium 5-Acetamido-4-N-allylamino-2,3,4,5-tetra-deoxy-D-glycero-D-galacto-non-2-enopyranosonate] yielded a Ki (N9 neuraminidase) of 2.5 µM and a Ki [2, 8] of 2.5 µM.
Compound `COC(=O)C1=C[C@@H](N)[C@@H](NC(C)=O)[C@H]([C@H](OC(C)=O)[C@@H](COC(C)=O)OC(C)=O)O1` [Compound 12, Methyl 5-acetamido-7,8,9-tri-O-acetyl-4-amino-2,3,4,5-tetradeoxy-D-glycero-D-talo-non-2-enopyranosonate] has a Ki [2, 8] of about 3000 µM.
`COC(=O)C1=C[C@H]2OC(C)=N[C@H]2[C@H]([C@H](OC(C)=O)[C@@H](COC(C)=O)OC(C)=O)O1` [Compound 13, Methyl 7,8,9-tri-O-acetyl-2,3,5-trideoxy-4',5'-dihydro-2'-methyloxazolo [5,4-d] D-glycero-D-talo-non-2-enopyranosonate] gave a Ki [2, 8] of 30 µM.
With `CC(=O)N[C@H]1[C@H]([C@H](O)[C@H](O)CO)OC(C(=O)O)=C[C@H]1N` [Compound 14, Sodium 5-Acetamido-4-amino-2,3,4,5-tetra deoxy-D-glycero-D-talo-non-2-enopyranosonate] the “% AUC” value [4, 11] was 21.1%, the “titre of virus in lung tissue” value [4] was “reduced the titre of virus in lung tissue” and the Ki (N9 neuraminidase) was 0.1 µM. It also gave a Ki [2, 8] of 0.1 µM, an IC50 [5] of 3 µM and an IC50 [6] of 1.2 µM.
In the case of `CC(=O)N[C@H]1[C@H]([C@H](O)[C@H](O)CO)OC(C(=O)O)=C[C@H]1N=[N+]=[N-]` [Compound 17, Sodium 5-acetamido-4-azido-2,3,4,5-tetradeoxy-D-glycero-D-talo-non-2-enopyranosonate], the Ki [2, 8] is reported as 28 µM.
With `CN[C@H]1C=C(C(=O)O)O[C@@H]([C@H](O)[C@H](O)CO)[C@@H]1NC(C)=O` [Compound 20, Sodium 5-acetamido-4-N-methylamino-2,3,4.5-tetradeoxy-D-glycero-D-galacto-non-2-enopyranosonate] the Ki [2, 8] was 1.15 µM.
Compound `CC(=O)N[C@H]1[C@H]([C@H](O)[C@H](O)CO)OC(C(=O)O)=C[C@@H]1N(C)C` [Compound 23, Sodium 5-acetamido-4-N,N-dimethylamino-2,3,4,5-tetradeoxy-D-glycero-D-galacto-non-2-enopyranosonate] has a Ki [2, 8] of 0.7 µM.
For `COC(=O)CN[C@H]1C=C(C(=O)OC)O[C@@H]([C@H](O)[C@H](O)CO)[C@@H]1NC(C)=O` [Compound 25, Methyl 5-acetamido-4-N-methoxycarbonylmethylamino-2,3,4,5-tetradeoxy-D-glycero-D-galacto-non-2-enopyranosonate], the Ki [2, 8] was 7 µM.
Work on `CC(=O)N[C@H]1[C@H]([C@H](O)[C@H](O)CO)OC(C(=O)O)=C[C@@H]1NCCO` [Compound 29, Sodium 5-acetamido-4-N-2'-hydroxyethylamino-2,3,4,5-tetradeoxy-D-glycero-D-galacto-non-2-enopyranosonate] yielded a Ki (N9 neuraminidase) of 1.6 µM, a Ki [2, 8] of 1.6 µM and an IC50 [5] of 60 µM. The IC50 [6] was 7 µM.
Compound `O=C(O)C1=C[C@H](O)[C@@H](O)[C@H]([C@H](O)[C@H](O)CO)O1` [Compound 35, Sodium 2,-3-dideoxy-D-glycero-D-galacto-non-2-enopyranosonate] has a Ki [2, 8] of 480 µM.
`N[C@H]1[C@H]([C@H](O)[C@H](O)CO)OC(C(=O)O)=C[C@@H]1N` [Compound 38, Sodium 4,5-Diamino-2,3,4,5-tetradeoxy-D-glycero-D-galacto-non-2-enopyranosonate] showed a Ki [2, 8] of 0.65 µM, an IC50 [5] of 11 µM and an IC50 [6] of 6.8 µM.
In the case of `COC(=O)C1=C[C@H](O)[C@@H](NC(C)=O)[C@H]([C@H](O)[C@H](O)CNC(C)=O)O1` [Compound 41, Methyl 5,9-diacetamido-2,3,5,9-tetradeoxy-D-glycero-D-galacto-non-2-enopyranosonate], the Ki [2, 8] is reported as 36 µM.
`CC(=O)NC[C@@H](O)[C@@H](O)[C@@H]1OC(C(=O)O)=C[C@H](O)[C@H]1NC(C)=O` [Compound 42, 5,9-diacetamido-2,3,5,9-tetradeoxy-D-glycero-D-galacto-non-2-enopyranosonicacid] showed a Ki [2, 8] of 14.5 µM.
In the case of `COC(=O)C1=C[C@H](O)[C@@H](NC(C)=O)[C@H]([C@H](O)[C@H](O)CC#N)O1` [Compound 43, Methyl 5-acetamido-9-cyano-2,3,5,9-tetradeoxy-D-glycero-D-galacto-non-2-enopyranosonate], the Ki [2, 8] is reported as about 3000 µM.
Work on `CC(=O)N[C@H]1[C@H]([C@H](O)[C@H](O)CC#N)OC(C(=O)O)=C[C@@H]1O` [Compound 44, 5-Acetamido-9-cyano-2,3,5,9-tetradeoxy-D-glycero-D-galacto-non-2-enopyranosonic acid] yielded a Ki [2, 8] of 3 µM.
`C=CCN(O)[C@H]1C=C(C(=O)O)O[C@@H]([C@H](O)[C@H](O)CO)[C@@H]1NC(C)=O` [Compound 45, Sodium 5-acetamido-4-N-allyl-N-hydroxy-2,3,4,5-tetradeoxy-D-glycero-D-galacto-non-2-enopyranosonate] showed an IC50 [5] of 4.7 µM and an IC50 [6] of 2.7 µM.
With `CC(=O)N[C@H]1[C@H]([C@H](O)[C@H](O)CO)OC(C(=O)O)=C[C@@H]1O` [DANA, 2-deoxy-2,3-didehydro-N-acetylneuraminic acid] the “% AUC” value [4, 9] was 0.18%, the “% AUC” value [4, 10] was 2.0% and the “% AUC” value [4, 11] was 48.0%. For the same compound, the “titre of virus in lung tissue” value [4] was “reduced the titre of virus in lung tissue”, the “inhibition of Arthrobacter sialophilus neuraminidase” value [1] was “inhibited in vitro” and the IC50 (influenza virus) was 5 µg/mL (≈ 17.2 µM).
In the case of `O=C(O)C1=C[C@H](O)[C@@H](NC(=O)C(F)(F)F)[C@H]([C@H](O)[C@H](O)CO)O1` [FANA, 2-deoxy-2,3-dehydro-N-trifluoroacetyl-neuraminic acid], the “anti-viral activity in vivo” value [7] is listed as “not to possess in vivo anti-viral activity; also recorded: inactive in vivo” and the “activity among neuraminidase inhibitors of the DANA type” value (neuraminidase; literature) is listed as “most active”.
For `CC(=O)N[C@H]1[C@H]([C@H](O)[C@H](O)CO)OC(F)(C(=O)O)C(F)[C@@H]1O` (stereo partly drawn) [N-acetyl-2,3-difluoro-α-D-neuraminic acid], the inhibition of neuraminidase (neuraminidase) is given as “reported to inhibit neuraminidase”.
In the case of `CC(=O)NC1C(O)CC(OC2C(O)C(CO)OC(O)C2NC(C)=O)(C(=O)O)OC1C(O)C(O)CO` [O-α-N-acetyl-D-neuraminosyl-)2→3)-2-acetamido-2-deoxy-D-glucose], the “inhibition of influenza or parainfluenza virus neuraminidase” value [3] is listed as “inhibited in vitro”.
In the case of `NC(=O)c1ncn([C@@H]2O[C@H](CO)[C@@H](O)[C@H]2O)n1` [Ribavirin], the “% AUC” value ([4]; Experiment 2, 25 mg/kg) is reported as 29.8%.
